Assay results from PubChem BioAssay (NCI).
Values joined by “and” are separate entries in the source; they are usually repeats but may differ in a detail not shown here. Equal entries are not always repeated.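 Tested at 5 concentrations; 48 h exposure; 96-well plates; endpoints linearly interpolated, else capped at highest concentration. Abbreviation: GI50, concentration required for 50% inhibition of growth. TGI marks complete inhibition of growth.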

Key:
Assay in all cases: inhibition of tumour cell growth, NCI panel, 48 h
HOP-62 NSCLC = system: HOP-62 NSCLC
TK-10 renal = system: TK-10 renal
M14 melanoma = system: M14 melanoma
SK-MEL-2 melanoma = system: SK-MEL-2 melanoma
HT29 colon = system: HT29 colon
NCI-H522 lung = system: NCI-H522 lung
EKVX NSCLC = system: EKVX NSCLC
SF-295 CNS = system: SF-295 CNS
CAKI-1 renal = system: CAKI-1 renal
SW-620 colon = system: SW-620 colon

SMILES | GI50 (HOP-62 NSCLC) | TGI (HOP-62 NSCLC) | GI50 (TK-10 renal) | TGI (TK-10 renal) | GI50 (M14 melanoma) | TGI (M14 melanoma) | GI50 (SK-MEL-2 melanoma) | TGI (SK-MEL-2 melanoma) | GI50 (HT29 colon) | TGI (HT29 colon) | GI50 (NCI-H522 lung) | TGI (NCI-H522 lung) | GI50 (EKVX NSCLC) | TGI (EKVX NSCLC) | GI50 (SF-295 CNS) | TGI (SF-295 CNS) | GI50 (CAKI-1 renal) | TGI (CAKI-1 renal) | GI50 (SW-620 colon) | TGI (SW-620 colon)
CCOC(=O)/C(=C/c1c(-c2ccccc2)[nH]c2ccccc12)C(=O)c1ccc(Cl)cc1 | 4.59 µM | > 100 µM | 28.2 µM | > 100 µM | 3.07 µM | > 100 µM | 3.99 µM | 47.5 µM | 3.96 µM | > 100 µM | 5.86 µM | > 100 µM | 3.73 µM | > 100 µM | 4.2 µM | > 100 µM | 4.12 µM | > 100 µM | 4.53 µM | > 100 µM
Cn1cc(-c2ccc3c(c2)ncn3-c2ccc(CC(=O)Nc3cc(C(C)(C)C)on3)cc2)cn1 | 1.41 µM | 29.4 µM | 0.671 µM | 3.17 µM | 1.1 µM | 10.5 µM | 1.99 µM | 5.14 µM | 2.6 µM | > 36.7 µM | 2.27 µM | 13.9 µM | 1.75 µM | 31.1 µM | 1.26 µM | > 38.8 µM | 0.782 µM | 2.43 µM | 2.44 µM | > 100 µM
O=[N+]([O-])c1ccc([I+]c2ccccc2)cc1 | 1.56 µM | 25.6 µM and 3.3 µM | 3.61 µM | 26.9 µM and 15.5 µM | 1.97 µM | 16.4 µM and 4.33 µM | 2.25 µM | 7.47 µM | 2.08 µM | 8.33 µM and 5.08 µM | 1.52 µM | 4.2 µM and 3.03 µM | 1.5 µM | 32 µM and 3.32 µM | 1.64 µM | 10.1 µM and 3.24 µM | 0.289 µM | 15 µM and 1.58 µM | 1.85 µM | 12.2 µM and 4.31 µM
CCN1C(=O)N(CC)C2C1NN=c1s/c(=C\c3ccc([N+](=O)[O-])cc3)c(=O)n12 (configuration not stated) | 0.731 µM | > 59.8 µM | > 35.4 µM | > 100 µM | 0.401 µM | > 43 µM | 1.16 µM | > 100 µM | 0.375 µM | > 100 µM | 0.323 µM | 6.94 µM | 0.893 µM | > 100 µM | 0.371 µM | > 52.2 µM | 0.395 µM | > 46.4 µM | 0.379 µM | > 100 µM
CCN1CCC(O)(c2ccccc2)C(C(=O)c2ccccc2)C1 (configuration not stated) |  | > 100 µM |  | 47.3 µM |  | 34.4 µM |  | > 100 µM |  | 39.7 µM |  | 6.87 µM |  | > 76.4 µM |  | > 100 µM |  | 19.3 µM |  | 38.3 µM
CC1=C(C(=O)Nc2cc(F)c(F)cc2F)C(c2cccc([N+](=O)[O-])c2)C(C(=O)Nc2ccccc2C(F)(F)F)=C(C)N1 (configuration not stated) |  | 54.5 µM |  | 71.5 µM |  | 55.5 µM |  | 42.1 µM |  | 62.8 µM |  | 34.7 µM |  | 77.1 µM |  | 48.8 µM |  | 49.6 µM |  | 87.1 µM
CCN(CC)c1ccc(/C=C/C2=[N+](C)c3ccccc3C2(C)C)cc1 | 0.697 µM | 16.3 µM | 0.373 µM | 10.6 µM | 0.581 µM | 19.5 µM | 0.487 µM | > 35.9 µM | 0.148 µM | > 40.5 µM | 0.274 µM | 21.8 µM | 0.235 µM | 14 µM | 0.374 µM | 22.2 µM | 0.852 µM | 12.6 µM | 0.36 µM | 19.4 µM
N/C(=N\N=C=C1C(=O)Nc2ccc(F)cc21)NO |  | > 100 µM |  | > 100 µM |  | > 100 µM |  | > 100 µM |  | > 100 µM |  | > 100 µM |  | > 100 µM |  | > 100 µM |  | > 100 µM |  | > 100 µM
Nc1cc2c3c(cccc3c1)C(=O)N(CCN1CCN(CCN3C(=O)c4cccc5cc(N)cc(c45)C3=O)CC1)C2=O |  | > 100 µM |  | > 100 µM |  | > 100 µM |  | > 100 µM |  | > 100 µM |  | > 100 µM |  | > 100 µM |  | > 100 µM |  | > 100 µM |  | > 100 µM
NCCCNCCCNc1nc2ccccc2c2[nH]c3ccccc3c12 | 0.0632 µM | 1.18 µM | 1.1 µM | 3.68 µM | 0.672 µM | 2.35 µM | 0.703 µM | 2.42 µM | 0.0482 µM | 1.86 µM | 0.00716 µM | 0.563 µM | 2.09 µM | 5.8 µM | 0.0664 µM | 1.61 µM | 0.458 µM | 2.31 µM | 0.19 µM | 1.64 µM
S=c1nc(/C=C/c2ccc(Cl)c(Cl)c2)[nH][nH]1 |  | > 100 µM |  | > 100 µM | 94.7 µM | > 100 µM |  | > 100 µM |  | > 100 µM |  | > 100 µM |  | > 100 µM |  | > 100 µM | 70 µM | > 100 µM |  | > 100 µM
C=C1CCC2C3(C)COC(c4cccc(Cl)c4)OC3CCC2(C)C1/C=C/C1=CCOC1=O (configuration not stated) | > 100 µM | > 100 µM | > 100 µM | > 100 µM | > 100 µM | > 100 µM | > 100 µM | > 100 µM | 5.32 µM | > 100 µM | 2.92 µM | > 100 µM | 2.55 µM | > 100 µM | 3.59 µM | > 100 µM | 7.78 µM | > 100 µM | 80.3 µM | > 100 µM
COc1cc2c(c(Br)c1N)-c1cc(Br)c(N)cc1C2=O | 10.1 µM | > 100 µM | 0.354 µM | > 100 µM | 50.9 µM | > 100 µM | > 100 µM | > 100 µM | > 100 µM | > 100 µM | 9.15 µM | 59.6 µM | 9.99 µM | > 100 µM | > 100 µM | > 100 µM | > 100 µM | > 100 µM | > 100 µM | > 100 µM
O=C(/C=C/c1cccnc1)/C=C/c1cccnc1 | 6.27 µM | 16.4 µM | 3.11 µM | 10.4 µM | 1.84 µM | 4.62 µM | 1.43 µM | 3.58 µM | 1.3 µM | 3.13 µM | 1.77 µM | 4.69 µM | 4.74 µM | 21.6 µM | 3.73 µM | 13.1 µM | 4.28 µM | 26.6 µM | 0.724 µM | 2.48 µM
Cn1c(=O)c2c(nc3n2C(CCl)CO3)n(C)c1=O (configuration not stated) |  | > 100 µM |  | > 100 µM |  | > 100 µM |  | > 100 µM |  | > 100 µM |  | > 100 µM |  | > 100 µM |  | > 100 µM |  | > 100 µM |  | > 100 µM
